Test [1] relates to Humanthrombozyten. Briefly: Induced aggregation of human platelets in vitro (Method 1, platelet-rich plasma, Born aggregometer). It counts as cell-based. Particulars: result in words; Tilsuprost compared with Prostacyclin. The source says:
Methode 1 - Induzierte Aggregation von Humanthrombozyten in vitro
Gesund erscheinenden männlichen und weiblichen Freiwilligen, die im vorangegangenen Zeitraum von 10 Tagen keine Medikamente eingenommen haben, wird durch vorsichtige Kanülierung der Antekubitalvene Blut entnommen, das sofort mit Natriumzitrat (ad 0,38%) stabilisiert wird. Durch 15minütiges Zentrifugieren bei 140 x g erhält man im Überstand plättchenreiches Plasma (PRP), dessen Thrombozytengehalt im Bereich 2,5 - 3,5·10⁺⁸ /ml (Coulter Counter) liegen soll. Die Plättchenaggregation wird optisch durch Messung der Lichttransmission im Born'schen Aggregometer verfolgt. Das Gesamtvolumen des Testansatzes beträgt 0,25 ml. Die Vorinkubationszeit mit dem Prüfpräparat beträgt 10 min bei 37°C, die Aggregationsinduktion erfolgt sodann mit 2 · 10⁻⁴ mol/l Arachidonsäure oder 1,7 µg/ml Kollagen. Das Prüfpräparat wird an fünf verschiedenen Spendern getestet. Aus den jeweiligen maximalen Aggregationsamplituden werden Dosis-Wirkungskurven erstellt und graphisch die arithmetisch gemittelten ED₅₀ (mol/l)-Werte bestimmt. Die Messungen erfolgen im Zeitraum von 1-6 Stunden nach Blutentnahme.

Test [2] concerns Humanthrombozyten. Description: Cyclo AMP determination in human platelets (Method 3, 3H-adenine labelling). It counts as cell-based. The conditions noted are these: result in words. The protocol: Methode 3 - Cyclo AMP-Bestimmung in Humanthrombozyten
Die Methode folgt in allen Einzelheiten der Vorschrift in Nature (London) 292 (1981) 364: Statt Kaninchenthrombozyten wurde jedoch menschliches Thrombozytenkonzentrat mit ³H-Adenin bei 20°C für 90 min inkubiert. Das überschüssige Adenin wird, wie in Nature beschrieben, entfernt, die Wirkstoffe (s. Tab. 2) zugesetzt und erneut 5 min (37°C) inkubiert. Das gebildete ³H-cyclo AMP wird in der bekannten Weise abgetrennt und durch Radioaktivitätsmessung quantifiziert.

Entries after “also recorded” stand apart in the source; their conditions may differ.

With `CCCCC[C@H](O)/C=C/[C@@H]1[C@H]2C/C(=C/CCCC(=O)O)O[C@H]2C[C@H]1O` [Prostacyclin, reference compound], the “Hemmstoffe der Aggregation von Humanthrombozyten” value in test [1] is on record as “äquipotent”. In the case of `CCCCCC(O)C=CC1C(O)CC2N=C(SCCCCC(=O)O)CC21` (stereo not drawn) [Tilsuprost], the “cyclo AMP-Stimulierung in Humanthrombozyten” value in test [2] is “keine signifikante Stimulierung; also recorded: keine signifikante stimulierende Wirkung”. Further, in test [1], the “Hemmstoffe der Aggregation von Humanthrombozyten” value is “äquipotent”.

The values are drawn from patent EP0208962B1, “Combination preparations from thrombocyte aggregation inhibitors, and their use” (HOECHST AKTIENGESELLSCHAFT, priority 1985, dated 1987).
